The source of these data is ChEMBL document CHEMBL4382233, “Discovery of novel arylethenesulfonyl fluorides as potential candidates against methicillin-resistant of Staphylococcus aureus (MRSA) for overcoming multidrug resistance of bacterial infections” (2019).

SMILES strings stand for the structures. Values after ≈ are worked out from the molar mass of the structure shown. Active and inactive are the calls of the source. The calls are words filed in the database; no cut-off is given here.

Experiment [1] concerns Staphylococcus haemolyticus. Kind of experiment: Antibacterial activity against methicillin-resistant Staphylococcus haemolyticus assessed as zone of inhibition at 800 ng/mL after 24 hrs by agar disc diffusion method. In kind it is functional. The settings on record: read-out: IZ.
The test system of experiment [2] is Staphylococcus aureus. Put plainly: Induction of cellular content release in methicillin-resistant Staphylococcus aureus assessed as DNA content by measuring optical density at 260 nm at MIC after 240 mins by UV-visible spectrophotometric analysis. The class given is functional.
For experiment [3], the system named is Staphylococcus aureus. Put plainly: Antibacterial activity against methicillin-resistant Staphylococcus aureus assessed as zone of inhibition at 400 ng/mL after 24 hrs by agar disc diffusion method. In kind it is functional. The conditions noted are these: read-out: IZ.
For experiment [4], the system named is Staphylococcus aureus. Kind of experiment: Induction of pore formation in methicillin-resistant Staphylococcus aureus cell membrane assessed as increase in ferricyanide mediated cellular leakage after 2 hrs by DCPIP dye-based cyclic voltammetric analysis. The class given is functional, organism-based.
Experiment [5] has as its system Staphylococcus aureus. Put plainly: Antibiofilm activity against methicillin-resistant Staphylococcus aureus at 2 times MIC after 24 hrs by crystal violet staining-based UV-visible spectrophotometric analysis. In kind it is functional, organism-based.
The subject of experiment [6] is Staphylococcus aureus. Kind of experiment: Induction of pore formation in methicillin-resistant Staphylococcus aureus cell membrane assessed as increase in ferricyanide mediated potassium efflux after 2 hrs by DCPIP dye-based cyclic voltammetric analysis. In kind it is functional, organism-based.
Experiment [7] concerns Staphylococcus epidermidis. Put plainly: Antibacterial activity against methicillin-resistant Staphylococcus epidermidis assessed as zone of inhibition at 20 ug/mL after 24 hrs by agar disc diffusion method. In kind it is functional. The settings on record: read-out: IZ.
Experiment [8] deals with Staphylococcus aureus. Put plainly: Antibacterial activity against methicillin-resistant Staphylococcus aureus assessed as zone of inhibition at 50 ug/mL after 24 hrs by agar disc diffusion method. In kind it is functional. The conditions noted are these: read-out: IZ.
For experiment [9], the system named is Staphylococcus haemolyticus. Kind of experiment: Antibacterial activity against methicillin-resistant Staphylococcus haemolyticus assessed as zone of inhibition at 400 ng/mL after 24 hrs by agar disc diffusion method. The class given is functional. The settings on record: read-out: IZ.
Experiment [10] relates to Staphylococcus epidermidis. Kind of experiment: Antibacterial activity against methicillin-resistant Staphylococcus epidermidis after overnight incubation by micro broth dilution analysis. In kind it is functional.
For experiment [11], the system named is Staphylococcus aureus. Kind of experiment: Antibacterial activity against methicillin-resistant Staphylococcus aureus assessed as zone of inhibition at 800 ng/mL after 24 hrs by agar disc diffusion method. In kind it is functional. The conditions noted are these: read-out: IZ.
Experiment [12] has as its system Staphylococcus aureus. Kind of experiment: Antibacterial activity against methicillin-resistant Staphylococcus aureus after overnight incubation by micro broth dilution analysis. The class given is functional.
Experiment [13] has as its system Staphylococcus aureus. Put plainly: Antibacterial activity against methicillin-resistant Staphylococcus aureus assessed as zone of inhibition at 200 ng/mL after 24 hrs by agar disc diffusion method. In kind it is functional. The conditions noted are these: read-out: IZ.
Experiment [14] concerns Staphylococcus haemolyticus. Kind of experiment: Antibacterial activity against methicillin-resistant Staphylococcus haemolyticus assessed as zone of inhibition at 200 ng/mL after 24 hrs by agar disc diffusion method. The settings on record: read-out: IZ. In kind it is functional.
In experiment [15] the test system is Staphylococcus aureus. Put plainly: Induction of pore formation in methicillin-resistant Staphylococcus aureus cell membrane assessed as increase in ferricyanide mediated DNA damage after 2 hrs by DCPIP dye-based cyclic voltammetric analysis. The class given is functional, organism-based.
Experiment [16] concerns Staphylococcus haemolyticus. Kind of experiment: Antibacterial activity against methicillin-resistant Staphylococcus haemolyticus after overnight incubation by micro broth dilution analysis. The class given is functional.
For experiment [17], the system named is Staphylococcus haemolyticus. Kind of experiment: Antibacterial activity against methicillin-resistant Staphylococcus haemolyticus assessed as zone of inhibition at 50 ug/mL after 24 hrs by agar disc diffusion method. The class given is functional. The settings on record: read-out: IZ.
In experiment [18] the test system is Staphylococcus aureus. Kind of experiment: Induction of membrane disruption in methicillin-resistant Staphylococcus aureus at MIC up to 24 hrs by SEM analysis. In kind it is functional, organism-based.
The test system of experiment [19] is Staphylococcus aureus. Kind of experiment: Antibiofilm activity against methicillin-resistant Staphylococcus aureus assessed as optical density at 492 nm at 1 to 2 times MIC after 24 hrs by crystal violet staining-based UV-visible spectrophotometric analysis. The class given is functional.
Experiment [20] relates to Staphylococcus aureus. Put plainly: Antibiofilm activity against methicillin-resistant Staphylococcus aureus at MIC after 24 hrs by crystal violet staining-based UV-visible spectrophotometric analysis. The class given is functional, organism-based.
Experiment [21] concerns Staphylococcus aureus. Put plainly: Antibiofilm activity against methicillin-resistant Staphylococcus aureus assessed as reduction in adherence of planktonic bacteria at MIC up to 24 hrs by SEM analysis. In kind it is functional, organism-based.
For experiment [22], the system named is Staphylococcus aureus. Put plainly: Antibacterial activity against methicillin-resistant Staphylococcus aureus at MIC by SEM analysis. In kind it is functional, organism-based. The conditions noted are these: TDE = time-dependent effect.
Experiment [23] concerns Staphylococcus epidermidis. Kind of experiment: Antibacterial activity against methicillin-resistant Staphylococcus epidermidis assessed as zone of inhibition at 800 ng/mL after 24 hrs by agar disc diffusion method. The class given is functional. The settings on record: read-out: IZ.
The test system of experiment [24] is Staphylococcus epidermidis. Put plainly: Antibacterial activity against methicillin-resistant Staphylococcus epidermidis assessed as zone of inhibition at 200 ng/mL after 24 hrs by agar disc diffusion method. The conditions noted are these: read-out: IZ. In kind it is functional.
The subject of experiment [25] is Staphylococcus epidermidis. Kind of experiment: Antibacterial activity against methicillin-resistant Staphylococcus epidermidis assessed as zone of inhibition at 400 ng/mL after 24 hrs by agar disc diffusion method. The settings on record: read-out: IZ. The class given is functional.
For experiment [26], the system named is Staphylococcus aureus. Put plainly: Antibiofilm activity against methicillin-resistant Staphylococcus aureus planktonic biofilm assessed as optical density at 492 nm at MIC after 24 hrs by crystal violet staining-based UV-visible spectrophotometric analysis. In kind it is functional.
In experiment [27] the test system is Staphylococcus haemolyticus. Kind of experiment: Antibacterial activity against methicillin-resistant Staphylococcus haemolyticus assessed as zone of inhibition at 10 ug/mL after 24 hrs by agar disc diffusion method. The settings on record: read-out: IZ. In kind it is functional.
For experiment [28], the system named is Staphylococcus epidermidis. Kind of experiment: Antibacterial activity against methicillin-resistant Staphylococcus epidermidis assessed as zone of inhibition at 10 ug/mL after 24 hrs by agar disc diffusion method. The class given is functional. The conditions noted are these: read-out: IZ.
The test system of experiment [29] is Staphylococcus aureus. Put plainly: Antibacterial activity against methicillin-resistant Staphylococcus aureus assessed as zone of inhibition at 10 ug/mL after 24 hrs by agar disc diffusion method. The class given is functional. The conditions noted are these: read-out: IZ.

On to `CC(=O)c1cccc(/C=C/S(=O)(=O)F)c1`, for which the zone of inhibition at 0.8 µg/mL in experiment [1] was 6.2 mm; in experiment [11], 8.1 mm. The OD in [2] is reported as 1.28. Moreover, the zone of inhibition at 0.4 µg/mL in experiment [3] turned out to be 7.5 mm; in experiment [9] it was 5.2 mm. Besides, the result in experiment [4], in experiment [5], in experiment [6] and in experiment [15] was Active. In experiment [7], the zone of inhibition at 20 µg/mL stood at 3.3 mm. Also, the zone of inhibition at 50 µg/mL in experiment [8] was found to be 10.1 mm; in [17] it was 8.2 mm. The MIC99 was found to be 55.6 µg/mL (≈ 244 µM) in experiment [10], 0.851 µg/mL (≈ 3.73 µM) in [12] and 0.843 µg/mL (≈ 3.69 µM) in [16]. Further, the zone of inhibition at 0.2 µg/mL in experiment [13] was determined as 5.2 mm; in experiment [14] it was 4.2 mm.

Consider `O=S(=O)(F)/C=C/c1cc(Cl)nc(Cl)c1`, for which the zone of inhibition at 0.8 µg/mL in experiment [1] turned out to be 7.4 mm; in experiment [23], 7.2 mm; in experiment [11], 11.4 mm. The OD in experiment [2] was 1.85; in experiment [19] it was 0.72; in experiment [26] it was 0.725. For the same compound, the zone of inhibition at 0.4 µg/mL in [3] turned out to be 9.2 mm; in experiment [9] it was 6.5 mm; in experiment [25], 6.3 mm. Moreover, the result in [18], in experiment [4], in experiment [6], in experiment [20], in experiment [21] and in experiment [15] was Active. Besides, the zone of inhibition at 20 µg/mL in experiment [7] was 7.1 mm. In addition, the Activity entry in [22] was “Tde”. The zone of inhibition at 50 µg/mL in experiment [8] came to 12.1 mm; in experiment [17], 7.2 mm. Moreover, the zone of inhibition at 0.2 µg/mL turned out to be 5.4 mm in experiment [24], 7.1 mm in [13] and 5.2 mm in [14]. In addition, the figures for the MIC99 in [10], in experiment [12] and in [16] were 0.84 µg/mL (≈ 3.28 µM), 0.811 µg/mL (≈ 3.17 µM) and 0.842 µg/mL (≈ 3.29 µM), respectively.

As for `CC1(C)S[C@@H]2[C@H](NC(=O)[C@H](N)c3ccccc3)C(=O)N2[C@H]1C(=O)O` [AMPICILLIN], the outcome in experiment [5] was Active. The figures for the zone of inhibition at 10 µg/mL in experiment [27], in experiment [28] and in experiment [29] were 7.6 mm, 11.7 mm and 9.95 mm, respectively. Moreover, the MIC99 in [10] is 7.15 µg/mL (≈ 20.5 µM); in experiment [12], 0.12 µg/mL (≈ 0.343 µM); in experiment [16], 10.1 µg/mL (≈ 28.9 µM). For the same compound, the OD in experiment [26] is recorded as 0.745.

Turning to `O=S(=O)(F)/C=C/c1cc(Cl)cc(Cl)c1`, the zone of inhibition at 0.8 µg/mL in experiment [1] was found to be 5.1 mm; in experiment [11], 14.2 mm. The results for the OD in [2] and in [26] were 1.34 and 0.825, respectively. For the same compound, the zone of inhibition at 0.4 µg/mL in experiment [3] was 10.2 mm; in experiment [9] it was 3.3 mm. Also, the result in experiment [4], in experiment [6], in [20] and in [15] was Active. Besides, the zone of inhibition at 20 µg/mL in [7] amounted to 4.4 mm. In addition, the figures for the zone of inhibition at 50 µg/mL in experiment [8] and in experiment [17] were 20.1 mm and 13.1 mm, respectively. Besides, the MIC99 came out at 48.1 µg/mL (≈ 188 µM) in experiment [10], 0.812 µg/mL (≈ 3.18 µM) in experiment [12] and 16.3 µg/mL (≈ 63.9 µM) in [16]. In addition, the zone of inhibition at 0.2 µg/mL amounted to 6.2 mm in experiment [13] and 0 mm in experiment [14].
